Experimental data taken from publication PMC6733874, “Zebrafish behavioural profiling identifies GABA and serotonin receptor ligands related to sedation and paradoxical excitation” (Nature Communications, 2019).
Read-outs that look alike come from different tables or passages of the source.

What was measured:
[1] = system: zebrafish; assay type: in vivo
[2] = system: human GABAARs (α1β2 and α1β2γ2); assay type: cell-based; details: compound at 20 uM then 5 uM GABA; for Ave Norm FLIPR Score: DMSO = 1; for FLIPR Results: Positive/Negative
Source text: To determine if these compounds targeted human GABAARs, we tested them in a fluorescent imaging plate reader (FLIPR) assay on HEK293 cells transfected with α1β2 and α1β2γ2 human GABAAR subtypes. […]. […] While some of the compounds appeared to function in this assay as negative allosteric modulators (NAMs), reductions in fluorescence were likely due to toxicity-induced cell loss (Fig. 2f, Supplementary Table 5).
We used the FLIPR system (Molecular Devices) to quantify GABA-evoked activity of human GABAARs. We chose a membrane potential dye (Molecular Devices) to measure changes in membrane potentials and stably transfected HEK293 cells that expressed α1, β2 and γ2. Since we observed an increase in GABA-evoked responses when transfected with γ2 transiently, we describe the cells as having a low level of γ-subunit expression, indicating heterogeneity of GABAAR compositions in the cell (α1β2 or α1β2γ2). To assay for direct agonists, fluorescence was subtracted pre- and post compound addition. To assay for PAMs, cells were treated with compound at 20 uM and then with 5 uM GABA.

[3] = larvae, low-volume acoustic stimulus

CCCN(CCC)C1CCc2cccc(O)c2C1 (centres unmarked) [8-HYDROXY-DPAT]
Phenoscore ([1]; zebrafish, in vivo): 0.49

NCCc1c[nH]c2c(O)cc(O)cc12 [57-DIHYDROXYTRYPTAMINE]
Phenoscore ([1]; zebrafish, in vivo): 0.05

CCN(Cc1ccccc1)C(=O)Cn1c(=O)n(C)c2cnc(-c3ccccc3)nc21 [AC 5216]
enhanced acoustic startle response (eASR) phenotype, in words [1, 3]: caused eASRs in vivo

CC(N)Cc1c[nH]c2ccc(OCc3cccs3)cc12 (centres unmarked) [BW 723C86]
Phenoscore ([1]; zebrafish, in vivo): 0.1

Cc1c(OCc2cccc(-c3ccc(C(=O)O)cc3)c2)cc2c(c1C)C(=O)C(C1CCCC1)C2 (centres unmarked) [Biphenylindanone A]
Phenoscore ([1]; zebrafish, in vivo): 0.11

CCc1c(C(=O)OC)ncc2[nH]c3cc(OC)c(OC)cc3c12 [DMCM]
Phenoscore ([1]; zebrafish, in vivo): 0.54

COc1cc(CC(C)N)c(OC)cc1I.Cl (centres unmarked) [DOI HYDROCHLORIDE]
Phenoscore ([1]; zebrafish, in vivo): 0.1

O=C(Nc1c(-c2cccs2)nc2ccccn12)c1ccc(Cl)cc1 [DS2]
enhanced acoustic startle response (eASR) phenotype, in words [1, 3]: did not cause eASRs

Cc1[nH]c2ccc(Cl)cc2c1C1=CCNCC1.Cl [EMD 386088 HYDROCHLORIDE]
Phenoscore ([1]; zebrafish, in vivo): 0.15

CCc1[nH]c2ccc(OC)cc2c1CCN(C)C.O=C(O)C(=O)O [EMDT oxalate]
effect on eASRs caused by HTR6 antagonists ([1]; co-treatment, in words): did not suppress eASRs

CN1CC(=O)NC1=NC(=O)Nc1cccc(Cl)c1 [Fenobam]
Phenoscore ([1]; zebrafish, in vivo): 0.3

NCCCC(=O)O [GABA]
Phenoscore ([1]; zebrafish, in vivo): 0.21

CN(C)CCCc1cc(C(=O)Nc2ccc(-c3ccncc3)cc2)ccc1O.Cl.Cl [GR 55562 DIHYDROCHLORIDE]
Phenoscore ([1]; zebrafish, in vivo): 0.24

O=C(Nc1cnc(Cl)nc1)c1ccc(F)c(F)c1 [ICA-069673]
eASR magnitudes in animals treated with M-current ligands ([1]; zebrafish, in vivo): significantly decreased

CCOC(=O)c1ncn2c1[C@@H]1CCCN1C(=O)c1cc(OC)ccc1-2 [L-655,708]
Phenoscore ([1]; zebrafish, in vivo): 0.51

NC(CCP(=O)(O)O)C(=O)O [L-AP4]
Phenoscore ([1]; zebrafish, in vivo): 0.1

CSc1ccc2c(c1)C(N1CCN(C)CC1)Cc1ccccc1S2 (centres unmarked) [METHIOTHEPIN]
Phenoscore ([1]; zebrafish, in vivo): 0.33

Cc1cccc(C#Cc2ccccc2)n1 [MPEP]
enhanced acoustic startle response (eASR) phenotype, in words [1, 3]: reproducibly caused eASRs | Phenoscore ([1]; zebrafish, in vivo): 0.73

COc1ccc2c(c1)c(CCN(C)C)cn2S(=O)(=O)c1ccccc1.O=C(O)C(=O)O [MS 245 OXALATE]
Phenoscore ([1]; zebrafish, in vivo): 0.09

Cc1nccn1CC1CCc2c(c3ccccc3n2C)C1=O.Cl (centres unmarked) [Ondansetron Hydrochloride]
Phenoscore ([1]; zebrafish, in vivo): 0.13

CCC(C)N(C)C(=O)c1cc2ccccc2c(-c2ccccc2Cl)n1 (centres unmarked) [PK 11195]
enhanced acoustic startle response (eASR) phenotype, in words [1, 3]: caused eASRs in vivo

O=C(O)/C=C\C(=O)O.c1ccc2nc(N3CCNCC3)ccc2c1 [Quipazine maleate salt]
Phenoscore ([1]; zebrafish, in vivo): 0.16

NC[C@H](CC(=O)O)c1ccc(Cl)cc1 [R-Baclofen]
Phenoscore ([1]; zebrafish, in vivo): 0.26

CNc1cc(NS(=O)(=O)c2ccc(N)cc2)nc(NC)n1 [Ro 04-6790]
Phenoscore ([1]; zebrafish, in vivo): 0.11

COc1ccc(S(=O)(=O)Nc2cc(Cl)cc(Cl)c2OC)cc1N1CCNCC1.Cl [SB 399885 hydrochloride]
Phenoscore ([1]; zebrafish, in vivo): 0.16

COc1ccc(NC(=O)c2ccc(-c3ccc(-c4noc(C)n4)cc3C)cc2)cc1OCCN(C)C [SB-216641]
Phenoscore ([1]; zebrafish, in vivo): 0.11

O=C(N/N=C/c1ccccc1O)c1ccccc1O [SCS]
Phenoscore ([1]; zebrafish, in vivo): 0.04

CCN(CC)CCOC(=O)c1cc(Cl)c(N)cc1OC [SDZ-205557]
Phenoscore ([1]; zebrafish, in vivo): 0.07

Br.COc1ccc(-c2ccc(=N)n(CCCC(=O)O)n2)cc1 [SR-95531]
Phenoscore ([1]; zebrafish, in vivo): 0.21

Cc1[nH]c2ccc(Cl)cc2c1CCN(C)C.O=C(O)C(=O)O [ST 1936 OXALATE]
Phenoscore ([1]; zebrafish, in vivo): 0.09

NC/C=C/C(=O)O [TACA]
Phenoscore ([1]; zebrafish, in vivo): 0.07

CC1(C)CC(=O)c2c(SCCO)sc(-c3nccs3)c2C1 [TB 21007]
Phenoscore ([1]; zebrafish, in vivo): 0.12

COc1cc(Br)c(OC)c2c1[C@H](CN)C2 [TCB-2]
Phenoscore ([1]; zebrafish, in vivo): 0.1

C[C@]12CC[C@@H](O)C[C@H]1CC[C@@H]1[C@@H]2CC[C@]2(C)[C@@H](C(=O)CO)CC[C@@H]12 [THDOC, tetrahydrodeoxycorticosterone]
phenoscore category ([1]; average phenoscore at highest scoring treatment): intermediate (intermediate phenoscores (0.51 < x < 0.71))

Oc1noc2c1CCNC2 [THIP, gaboxadol]
enhanced acoustic startle response (eASR) phenotype, in words [1, 3]: did not cause eASRs

N[C@@H](Cn1ccc(=O)n(Cc2ccccc2C(=O)O)c1=O)C(=O)O [UBP 302]
Phenoscore ([1]; zebrafish, in vivo): 0.17

O=C([O-])[C@H]1CCCC[C@H]1C(=O)Nc1cc(Cl)cc(Cl)c1.[Na+] [VU 0155041 Na Salt]
Phenoscore ([1]; zebrafish, in vivo): 0.11

CN(C)CCn1cc(S(=O)(=O)c2cccc(F)c2)c2cccnc21 [WAY 208466]
Phenoscore ([1]; zebrafish, in vivo): 0.21

O=C1c2ccccc2C(Cc2ccncc2)(Cc2ccncc2)c2ccccc21 [XE-991]
eASR magnitudes in animals treated with M-current ligands ([1]; zebrafish, in vivo): significantly increased

CN(C)C/C=C(\c1ccc(Br)cc1)c1cccnc1.Cl.Cl.O [Zimelidine dihydrochloride monohydrate]
Phenoscore ([1]; zebrafish, in vivo): 0.16

CC(N)Cc1c[nH]c2ccc(O)cc12 (stereo not drawn) [alpha-METHYLSEROTONIN]
Phenoscore ([1]; zebrafish, in vivo): 0.18

CN1CCc2cc3c(cc2[C@H]1[C@@H]1OC(=O)c2c1ccc1c2OCO1)OCO3 [bicuculline (+)]
Phenoscore ([1]; zebrafish, in vivo): 0.23

CN1CCc2cc3c(cc2[C@H]1[C@@H]1OC(=O)c2c1ccc1c2OCO1)OCO3 [bicuculline (-)]
Phenoscore ([1]; zebrafish, in vivo): 0.05

CCOC(=O)c1c(N)sc2ccccc12 [compound 5142031]
Ave Norm FLIPR Score [2]: 5.237 | FLIPR Results [2]: Positive

COc1ccccc1N1CCN(C(=O)c2ccc(C(=O)c3c(C)cc(C)cc3C)cc2)CC1 [compound 5352629]
Phenoscore ([1]; zebrafish, in vivo): 0.48

Clc1ccc(CSc2nc3ccccc3[nH]2)cc1 [compound 5551268]
Ave Norm FLIPR Score [2]: -1.463

CC(=O)c1c(C)nc2n(Cc3ccccc3)c3ccccc3n12 [compound 5573728]
Ave Norm FLIPR Score [2]: 27.62 | FLIPR Results [2]: Positive

O=C(Nc1c(C(=O)Nc2ccc(Cl)cc2)cnn1-c1ccccc1)c1ccco1 [compound 5583877]
Ave Norm FLIPR Score [2]: 36.71 | FLIPR Results [2]: Positive

O=C(Nc1c(C(=O)Nc2ccc(Cl)cc2)cnn1-c1ccccc1)c1ccccc1F [compound 5587256]
Ave Norm FLIPR Score [2]: -26.37

CCC(=O)c1c(C)nc2n(Cc3ccccc3)c3ccccc3n12 [compound 5649824]
Ave Norm FLIPR Score [2]: 41.41 | FLIPR Results [2]: Positive

COC(=O)c1sc(NC(=O)C2CCCO2)c(C(=O)OC)c1C (centres unmarked) [compound 5690842]
Ave Norm FLIPR Score [2]: 12.09 | FLIPR Results [2]: Positive

CCOC(=O)Nc1sc(C)c(CC)c1C(=O)OCC [compound 5695025]
Ave Norm FLIPR Score [2]: 32.27 | FLIPR Results [2]: Positive

COc1ccccc1N1CCN(C(=O)COc2ccc(Cl)cc2Br)CC1 [compound 5801496]
enhanced acoustic startle response (eASR) phenotype, in words [1, 3]: did not cause eASRs in vivo

Nc1ccc(Oc2ccc(Cl)c3cccnc23)c(Cl)c1 [compound 5846886]
Ave Norm FLIPR Score [2]: -5.255

CC(=O)/N=C(/Nc1cccc(C(F)(F)F)c1)Nc1nc(C)cc(C)n1 [compound 5869570]
Ave Norm FLIPR Score [2]: 15.04 | FLIPR Results [2]: Positive

CCOC(=O)c1c(C)n(Cc2ccco2)c2ccc(OC)cc12 [compound 5943451]
Phenoscore ([1]; zebrafish, in vivo): 0.37

O=S(=O)(Nc1ccc(OCc2ccccc2)cc1)c1ccc2c(c1)OCCO2 [compound 6163607]
Ave Norm FLIPR Score [2]: -5.679

COc1ccc(S(=O)(=O)N2CCC(C)CC2)cc1Br [compound 6366118]
Ave Norm FLIPR Score [2]: 14.5 | FLIPR Results [2]: Positive

COc1cc(OC)cc(C(=O)Nc2ccc(Cl)cc2C(F)(F)F)c1 [compound 6376886]
Ave Norm FLIPR Score [2]: 32.44 | FLIPR Results [2]: Positive

CCCN(CCC)S(=O)(=O)c1ccc(Cl)c(Cl)c1OC [compound 6474599]
Ave Norm FLIPR Score [2]: 52.02 | FLIPR Results [2]: Positive

COc1ccccc1-c1coc2cc(OC(=O)c3cccs3)ccc2c1=O [compound 6645327]
Ave Norm FLIPR Score [2]: -4.734

O=C(Nc1ccc(Cl)c(Cl)c1)c1ccc(Cl)cc1Cl [compound 7136301]
Phenoscore ([1]; zebrafish, in vivo): 0.42

Cc1cccc([C@H](C)c2cnc[nH]2)c1C [dexmedetomidine]
enhanced acoustic startle response (eASR) phenotype, in words ([1]; zebrafish, in vivo): not all anesthetics caused eASR behaviors

C[C@]12C=CC(=O)N[C@@H]1CC[C@@H]1[C@@H]2CC[C@]2(C)[C@@H](C(=O)Nc3cc(C(F)(F)F)ccc3C(F)(F)F)CC[C@@H]12 [dutasteride]
effect on progesterone's etomidate-like phenotype ([1]; dutasteride 3.0 μM + progesterone 2.5 μM): suppressed

CCOC(=O)Nc1ccc(NCc2ccc(F)cc2)nc1N [flupirtine]
eASR magnitudes in animals treated with M-current ligands ([1]; zebrafish, in vivo): significantly decreased

Fc1ccc2c(CCNCc3cccc(OCC(F)(F)C(F)F)c3)c[nH]c2c1 [idalopirdine]
enhanced acoustic startle response (eASR) phenotype, in words [1, 3]: reproducibly caused eASRs in vivo

FC(F)OC(Cl)C(F)(F)F (centres unmarked) [isoflurane]
enhanced acoustic startle response (eASR) phenotype, in words [1, 3]: not all anesthetics caused eASR behaviors

O=C1N(c2ccccc2)c2ccccc2C1(Cc1ccncc1)Cc1ccncc1 [linopirdine]
eASR magnitudes in animals treated with M-current ligands ([1]; zebrafish, in vivo): significantly increased

O=C(c1ccccn1)c1cnn2c(-c3ccncc3)ccnc12 [ocinaplon]
enhanced acoustic startle response (eASR) phenotype, in words [1, 3]: produced a behavioral profile that resembled the negative

O=C1CCCN1CC#CCN1CCCC1 [oxotremorine]
eASR magnitudes in animals treated with M-current ligands ([1]; zebrafish, in vivo): significantly increased

CCOC(=O)c1cccc(N)c1 [tricaine]
enhanced acoustic startle response (eASR) phenotype, in words [1, 3]: not all anesthetics caused eASR behaviors

CCOC(=O)c1cc2c(cn1)[nH]c1ccccc12 [β-CCE]
Phenoscore ([1]; zebrafish, in vivo): 0.37
